Experimental data: ChEMBL document CHEMBL4831510, “Novel cannabidiol-carbamate hybrids as selective BuChE inhibitors: Docking-based fragment reassembly for the development of potential therapeutic agents against Alzheimer's disease” (Eur J Med Chem, 2021)
Active and inactive are the calls of the source. The rule behind the calls is not given here.

Columns and labels:
Acetylcholinesterase = Acetylcholinesterase (Homo sapiens, UniProt P22303); assay: Inhibition of human AChE using acetylthiocholine iodide as substrate at 20 uM preincubated with enzyme for 5 mins followed by substrate addition and measured after 5 mins by Ellman's method; conditions: time 10.0 min
Mus musculus [1] = assay: Anti-alzheimer activity against oligomerized-amyloid beta (1 to 42) peptide-induced cognitive dysfunction ICR mouse model assessed as simplification of trajectories to the platform at 5 mg/kg, po administered from day 3 to 14 by Morris water maze test; type: functional, organism-based; conditions: time 12.0 day
Cholinesterase [2] = molecular target: T1, Cholinesterase (Equus caballus, UniProt P81908)
Description: Inhibition of equine serum BuChE using butyrylthiocholine iodide as substrate preincubated with enzyme for 20 mins followed by substrate addition and measured after 20 mins by Ellman's method

[3] = molecular target: Acetylcholinesterase (Electrophorus electricus) (UniProt O42275); assay: Inhibition of electric eel AChE using acetylthiocholine iodide as substrate at 20 uM preincubated with enzyme for 20 mins followed by substrate addition and measured after 20 mins by Ellman's method; conditions: time 40.0 min
[4] = Permeability of the compound at 100 ug/ml incubated for 18 hrs by PAMPA; type: ADME; conditions: dose 100 µg/ml, read-out: permeability
PC-12 [5] = assay: Neuroprotective activity against H2O2-induced cytotoxicity in rat PC-12 cells assessed as increase in cell viability pretreated for 3 hrs followed by H2O2 stimulation and measured after 24 hrs by MTT assay; type: functional, cell-based; conditions: time 27.0 hrs
[6] = Hepatotoxicity in ICR mouse assessed as distinct fatty degeneration of hepatocytes of the surrounding intermediate and peripheral zones in liver at 30 mg/kg, ig measured after 36 hrs by immunohistochemical staining based analysis; type: toxicity, organism-based; conditions: in vivo, po
[7] = n-Octanol/PBS partition coefficient, logP of the compound incubated for 48 hrs at pH 7.4 by shake flask method; type: physicochemical
[8] = Acute toxicity in ICR mouse assessed as animal death at 1 g/kg, ig measured for 7 days; conditions: in vivo, po, 1000 mg/kg, 168 h, time 7 day
[9] = molecular target: Cholinesterase (Equus caballus) (UniProt P81908); assay: Pseudo-irreversible inhibition of equine serum BuChE assessed as overall carbamolyation-rate using butyrylthiocholine iodide as substrate preincubated with enzyme for 60 mins prior to substrate addition; type: cell-free
[10] = Cytotoxicity against human HepG2 cells assessed as cell viability at 50 uM incubated for 24 hrs by MTT assay; type: cell-based; conditions: read-out: Activity
PC-12 [11] = assay: Neuroprotective activity against H2O2-induced cytotoxicity in rat PC-12 cells assessed as cell viability at 25 uM pretreated for 3 hrs followed by H2O2 stimulation and measured after 24 hrs by MTT assay (reference value: 38.7%); type: functional; conditions: time 27 hrs, read-out: Activity
Cholinesterase [12] = molecular target: Cholinesterase (Homo sapiens, UniProt P06276)
Description: Inhibition of human serum BuChE using butyrylthiocholine iodide as substrate preincubated with enzyme for 5 mins followed by substrate addition and measured after 5 mins by Ellman's method

Mus musculus [13] = assay: Anti-alzheimer activity against scopolamine-induced cognitive dysfunction mouse model assessed as increase in swimming time in the target quadrant crossing at 20 mg/kg, ip measured after 60 mins by Morris water maze test; type: functional, organism-based
Mus musculus [14] = assay: Anti-alzheimer activity against scopolamine-induced cognitive dysfunction mouse model assessed as reduction in escape time latency at 20 mg/kg, ip measured after 60 mins by Morris water maze test; type: functional, organism-based
[15] = Acute toxicity in ICR mouse assessed as effect on body weight at 1 g/kg, ig measured for 14 days; conditions: in vivo, po, 1000 mg/kg, 336 h, time 14 day
Mus musculus [16] = assay: Anti-alzheimer activity against oligomerized-amyloid beta (1 to 42) peptide-induced cognitive dysfunction ICR mouse model assessed as improvement in alteration performance at 5 mg/kg, po administered from day 3 to 14 by […]; type: functional, organism-based; conditions: time 12.0 day
[17] = Hepatotoxicity in ICR mouse assessed as effect on AST level in serum at 30 mg/kg, ig measured after 36 hrs; type: toxicity, organism-based; conditions: in vivo, po
Mus musculus [18] = assay: Anti-alzheimer activity against oligomerized-amyloid beta (1 to 42) peptide-induced cognitive dysfunction ICR mouse model assessed as increase in neuronal density at CA1 region of hippocampus at 5 mg/kg, po administered from day 3 to 14 by Hematoxylin-Eosin staining based microscopic analysis; type: functional, organism-based; conditions: time 12.0 day
[19] = Cytotoxicity against human L02 cells assessed as cell viability at 50 uM incubated for 24 hrs by MTT assay; type: cell-based; conditions: read-out: Activity
Mus musculus [20] = assay: Anti-alzheimer activity against scopolamine-induced cognitive dysfunction mouse model assessed as increase in number of platform crossing at 20 mg/kg, ip measured after 60 mins by Morris water maze test; type: functional, organism-based
Mus musculus [21] = assay: Anti-alzheimer activity against oligomerized-amyloid beta (1 to 42) peptide-induced cognitive dysfunction ICR mouse model assessed as reduction in amyloid beta (1 to 42) peptide level in brain at 5 mg/kg, po administered from day 3 to 14 by ELISA; type: functional; conditions: 288 h, time 12 day
[22] = Acute toxicity in ICR mouse assessed as behavioral changes at 1 g/kg, ig measured for 7 days; conditions: in vivo, po, 1000 mg/kg, 168 h, time 7 day
[23] = Hepatotoxicity in ICR mouse assessed as pericentral necrosis in liver at 30 mg/kg, ig measured after 36 hrs by immunohistochemical staining based analysis; type: toxicity, organism-based; conditions: in vivo, po
[24] = molecular target: Cholinesterase (Equus caballus) (UniProt P81908); assay: Pseudo-irreversible inhibition of equine serum BuChE assessed as carbamolyation-rate using butyrylthiocholine iodide as substrate preincubated with enzyme for 60 mins prior to substrate addition; type: cell-free
[25] = Antioxidant activity assessed as DPPH radical scavenging activity at 100 uM incubated for 2 hrs by microplate reader method; type: functional
Cholinesterase [26] = molecular target: T1, Cholinesterase; assay: Pseudo-irreversible inhibition of equine serum BuChE assessed as binding affinity in an equilibrium state using butyrylthiocholine iodide as substrate preincubated with enzyme for 60 mins prior to substrate addition; type: cell-free
[27] = Hepatotoxicity in ICR mouse assessed as effect on ALT level in serum at 30 mg/kg, ig measured after 36 hrs; type: toxicity, organism-based; conditions: in vivo, po
Mus musculus [28] = assay: Anti-alzheimer activity against oligomerized-amyloid beta (1 to 42) peptide-induced cognitive dysfunction ICR mouse model assessed as reduction in escape latency time at 5 mg/kg, po administered from day 3 to 14 by Morris water maze test; type: functional, organism-based; conditions: time 12.0 day
[29] = molecular target: Cholinesterase (Equus caballus) (UniProt P81908); assay: Pseudo-irreversible inhibition of equine serum BuChE assessed as decarbamolyation-rate using butyrylthiocholine iodide as substrate preincubated with enzyme for 60 mins prior to substrate addition; type: cell-free

Cholinesterase (Equus caballus), sequence (P81908 whole entry): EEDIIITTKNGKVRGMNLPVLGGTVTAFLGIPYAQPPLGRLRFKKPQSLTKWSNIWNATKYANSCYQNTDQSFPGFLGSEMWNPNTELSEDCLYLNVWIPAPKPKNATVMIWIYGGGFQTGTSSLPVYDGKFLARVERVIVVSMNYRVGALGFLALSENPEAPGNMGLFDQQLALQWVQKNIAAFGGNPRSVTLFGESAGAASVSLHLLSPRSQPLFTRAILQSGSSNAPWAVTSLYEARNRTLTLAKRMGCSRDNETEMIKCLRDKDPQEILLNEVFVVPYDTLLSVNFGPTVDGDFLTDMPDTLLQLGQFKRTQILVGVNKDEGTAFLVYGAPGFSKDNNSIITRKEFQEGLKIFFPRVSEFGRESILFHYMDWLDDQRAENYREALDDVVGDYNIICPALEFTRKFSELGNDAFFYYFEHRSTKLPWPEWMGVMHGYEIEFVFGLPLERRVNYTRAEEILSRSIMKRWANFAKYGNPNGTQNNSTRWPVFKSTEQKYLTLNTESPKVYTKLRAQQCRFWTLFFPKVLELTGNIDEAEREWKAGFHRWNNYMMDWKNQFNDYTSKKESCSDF
T1 sequence (P81908 whole entry): as above
Acetylcholinesterase, sequence (P22303 whole entry): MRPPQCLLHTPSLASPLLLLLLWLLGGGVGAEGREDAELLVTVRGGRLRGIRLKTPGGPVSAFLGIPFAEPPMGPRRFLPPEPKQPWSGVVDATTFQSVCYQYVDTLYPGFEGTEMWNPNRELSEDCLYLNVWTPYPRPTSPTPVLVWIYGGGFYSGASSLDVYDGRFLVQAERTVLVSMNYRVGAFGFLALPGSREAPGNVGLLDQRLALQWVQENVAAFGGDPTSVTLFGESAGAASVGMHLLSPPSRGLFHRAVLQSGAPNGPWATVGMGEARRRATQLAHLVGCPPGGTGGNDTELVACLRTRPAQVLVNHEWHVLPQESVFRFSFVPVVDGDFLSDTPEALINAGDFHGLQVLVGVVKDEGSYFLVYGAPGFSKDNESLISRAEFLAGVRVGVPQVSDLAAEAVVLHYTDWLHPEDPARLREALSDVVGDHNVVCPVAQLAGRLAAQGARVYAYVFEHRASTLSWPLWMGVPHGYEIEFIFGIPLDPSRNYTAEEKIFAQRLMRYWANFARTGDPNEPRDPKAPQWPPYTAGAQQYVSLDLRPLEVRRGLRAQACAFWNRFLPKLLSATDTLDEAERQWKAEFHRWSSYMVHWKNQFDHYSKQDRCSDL
Acetylcholinesterase (Electrophorus electricus), sequence (O42275 24-633 limits assumed): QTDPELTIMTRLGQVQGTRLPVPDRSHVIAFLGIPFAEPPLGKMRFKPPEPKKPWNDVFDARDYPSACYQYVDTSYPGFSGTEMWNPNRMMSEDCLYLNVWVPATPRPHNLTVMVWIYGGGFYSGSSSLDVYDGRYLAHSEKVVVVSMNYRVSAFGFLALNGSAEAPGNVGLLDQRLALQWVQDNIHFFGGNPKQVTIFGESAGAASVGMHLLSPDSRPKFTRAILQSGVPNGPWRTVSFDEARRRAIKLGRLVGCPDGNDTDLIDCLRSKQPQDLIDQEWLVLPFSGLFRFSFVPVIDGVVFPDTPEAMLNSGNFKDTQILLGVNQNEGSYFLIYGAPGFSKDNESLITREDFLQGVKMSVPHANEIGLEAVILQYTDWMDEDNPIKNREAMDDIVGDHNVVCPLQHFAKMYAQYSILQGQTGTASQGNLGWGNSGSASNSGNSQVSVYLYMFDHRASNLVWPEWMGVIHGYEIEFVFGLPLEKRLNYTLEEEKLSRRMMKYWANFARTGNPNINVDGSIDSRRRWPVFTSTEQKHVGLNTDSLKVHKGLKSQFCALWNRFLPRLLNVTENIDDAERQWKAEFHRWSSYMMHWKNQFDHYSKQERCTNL
Cholinesterase (Homo sapiens, UniProt P06276), sequence (P06276 whole entry): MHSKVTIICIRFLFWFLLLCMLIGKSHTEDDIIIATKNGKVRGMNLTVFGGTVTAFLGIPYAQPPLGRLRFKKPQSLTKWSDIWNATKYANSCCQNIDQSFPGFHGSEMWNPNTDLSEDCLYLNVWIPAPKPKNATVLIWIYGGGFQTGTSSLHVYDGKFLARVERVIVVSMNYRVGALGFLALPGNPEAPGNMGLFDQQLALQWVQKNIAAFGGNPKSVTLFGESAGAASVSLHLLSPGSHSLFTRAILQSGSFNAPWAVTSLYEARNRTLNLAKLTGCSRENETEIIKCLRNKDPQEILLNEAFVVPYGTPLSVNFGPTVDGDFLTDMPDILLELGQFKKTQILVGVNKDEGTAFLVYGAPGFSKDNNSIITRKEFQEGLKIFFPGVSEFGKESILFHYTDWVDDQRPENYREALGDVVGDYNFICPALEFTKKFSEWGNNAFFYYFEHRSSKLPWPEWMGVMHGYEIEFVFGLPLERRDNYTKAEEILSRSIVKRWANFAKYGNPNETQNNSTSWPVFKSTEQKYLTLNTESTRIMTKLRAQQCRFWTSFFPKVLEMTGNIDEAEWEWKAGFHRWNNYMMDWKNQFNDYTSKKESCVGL

## C=C(C)[C@@H]1CCC(C)=C[C@H]1c1c(O)cc(CCCCC)cc1OC(=O)N(C)Cc1ccc(Cl)cc1
Acetylcholinesterase
  inhibition: 26.3%
Mus musculus [1]
  Activity: Active
Cholinesterase [2]
  IC50: 5.3 nM
[3]
  inhibition: 21.4%
[4]
  Papp at 18 h, 100 ug/ml: 12.9 ×10⁻⁶ cm/s
PC-12 [5]
  Activity: Dose-Dependent Effect
[6]
  Activity: Non-Toxic
[7]
  logD at 48 h: 2.38
[8]
  Activity: Non-Toxic
[9]
  K: 20.3 µM/min
[10]
  viability at 24 h, 50 µM: 88.3%
PC-12 [11]
  viability at 25 µM: 41.9%
Cholinesterase [12]
  IC50: 1770 nM
Mus musculus [13]
  Activity: Active
Mus musculus [14]
  Activity: Active
[15]
  Activity: Non-Toxic
Mus musculus [16]
  Activity: Active
[17]
  Activity: Non-Toxic
Mus musculus [18]
  Activity: Active
[19]
  viability at 24 h, 50 µM: 96%
Mus musculus [20]
  Activity: Active
Mus musculus [21]
  inhibition in vivo at 5 mg/kg: 31.6%
[22]
  Activity: Non-Toxic
[23]
  Activity: Non-Toxic
[24]
  K: 0.26 min⁻¹
[25]
  inhibition: 27.1%
Cholinesterase [26]
  Kd: 13 nM
[27]
  Activity: Non-Toxic
Mus musculus [28]
  Activity: Active
[29]
  K: 5.2 10^3/min
